Substitutions are numbered along the chain they refer to. Where a name gives a salt, the structure may show the parent alone. Read-outs that look alike come from different tables or passages of the source.
Columns and labels:
Simian chymase = target: T1, Simian chymase (Macaca mulatta, UniProt F6SAJ2); experiment: Measurement of inhibitory activity of simian chymase (Ang I substrate, His-Leu/OPT fluorescence); assay type: biochemical, rhesus monkey; details: chymase from heart of rhesus monkey; 120 minutes at 37° C.; read-out: Simian chymase IC50 value
T1 sequence (F6SAJ2 22-247 limits assumed): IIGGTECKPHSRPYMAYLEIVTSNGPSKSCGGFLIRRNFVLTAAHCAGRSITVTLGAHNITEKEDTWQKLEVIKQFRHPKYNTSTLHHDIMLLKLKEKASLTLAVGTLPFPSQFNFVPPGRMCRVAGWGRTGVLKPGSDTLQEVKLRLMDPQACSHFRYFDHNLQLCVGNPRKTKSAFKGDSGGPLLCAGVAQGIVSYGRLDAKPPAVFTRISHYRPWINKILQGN
Procedure: (§5) That is, the activity was measured by reacting free His-Leu formed together with Ang II with o-phthalaldehyde (hereinafter, abbreviated as OPT) to prepare a fluorescent derivative and determining the amount quantitatively by means of a fluorophotometer.
(§6) First, 3.6 μmol of each test compound was weighed in a test tube and was dissolved into 3 mL of DMSO. The DMSO solution was diluted 1000-fold with 20 mmol/L Tris-hydrochloric acid buffer solution (pH 8.0) containing 0.01% Triton X-100 and 0.5 mol/L potassium chloride to prepare 1.2×10^−6 mol/L solution, which was successively diluted with the buffer solution to prepare test sample solutions having concentrations of 1.2×10^−6 mol/L to 1.2×10^−9 mol/L. To 500 μL of the test sample solution of each concentration or buffer solution was added 50 μL of an enzyme solution, followed by 10 minutes of pre-incubation at 37° C. Then, 50 μL of 0.1 mmol/L Ang I solution was added to initiate a reaction. Human angiotensin I (manufactured by SIGMA) was employed as Ang I. The enzyme solution to be used for the reaction was adjusted so as to hydrolyze about 60% of substrate under the conditions, and the reaction wherein a buffer solution containing no enzyme was carried out as a blind test. […] Thereafter, the reaction mixture was centrifuged at 4° C. at 3,000 rpm for 10 minutes and 2 mL of 2 mol/L sodium hydroxide and 1 mL of methanol were added to 1 mL of the resulting supernatant. […] The measurement was repeated twice for each sample and blind test. The fluorescence intensity obtained by subtracting the average value at blind test from the average value thereof was determined as chymase activity.
(§7) In this regard, an enzymatic reaction using a buffer solution instead of the test sample solution was carried out as a control, and inhibitory ratio of chymase activity was determined as percentage by dividing the difference of subtraction of the activity at the addition of the test compound from the chymase activity at the control by the chymase activity at the control.

Human chymase = target: T2, Human chymase (Homo sapiens, UniProt P23946); experiment: Measurement of inhibitory activity of human chymase (Ang I substrate, His-Leu/OPT fluorescence)
T2 sequence (P23946 22-247): T1 sequence (F6SAJ2 22-247 limits assumed) with S29F, K63E, Y159D, L201S, K221Q, G225A
Procedure: as §5, §6, §7

Stability in rat plasma = assay type: in vitro ADME; details: 10 μg/mL, 37° C., 60 minutes, HPLC
Procedure: Stability of the compounds of the invention in rat plasma was investigated.
Male SD rats (7-week-old) were anesthetized with ether under over-night fasting conditions and, after an abdominal part was incised, blood was collected from aorta abdominalis using a heparinized disposable plastic syringe. The blood was centrifuged under cooling to collect a supernatant plasma. The collected plasma was stored under freezing at −30° C. and was melted before use. After a test compound was dissolved in DMSO, the solution was added to 200 μL of the plasma so as to be 10 μg/mL, followed by incubation at 37° C. After 60 minutes, the mixture was acidified by adding 200 μL of 0.1 mol/L hydrochloric acid, and then extracted twice with 2 mL of ethyl acetate. The resulting organic layer was evaporated to dryness under a nitrogen gas flow and the residue was dissolved into 200 μL of acetonitrile to prepare a sample solution. On the other hand, the test compound was dissolved into 1% acetonitrile solution of DMSO so as to be 10 μg/mL as a control solution. The sample solution and control solution was investigated by high performance liquid chromatography (hereinafter, abbreviated as HPLC). Residual ratio (%) was determined as percentage by dividing the peak area of the sample solution by the peak area of the control solution.
Column: Waters Nova Pack C18 (inner diameter: 3.9 mm, length: 150 mm)
Mobile phase A: acetonitrile/water=10/90
Mobile phase B: acetonitrile/methanol=50/50
Eluent: Mobile phase A-mobile phase B (100/0 to 0/100, linear gradient, 50 minutes)
Amount of injection: 50 μL

Chymotrypsin = target: T3, Chymotrypsin (Bos taurus, UniProt P00766); experiment: Measurement of chymotrypsin inhibitory activity (Suc-Ala-Ala-Pro-Phe-pNA); assay type: biochemical; details: Chymotrypsin Type I-S from bovine pancreas; 30 minutes at 37° C.
T3 construct: Chymotrypsin Type I-S derived from bovine pancreas; purchased SIGMA Type I-S; host or cells: bovine pancreas
Procedure: (§1) Measurement of Cathepsin G Inhibitory Activity and Chymotrypsin Inhibitory Activity
(§2) Each activity of cathepsin G or chymotrypsin was measured by determining the amount of free p-nitroaniline quantitatively using a synthetic substrate that is colorless and yields colored product upon hydrolysis, by means of a spectrophotometer. Chymotrypsin Type I-S derived from bovine pancreas was purchased from SIGMA. As cathepsin G, the product of Elastin Products Company, Inc. derived from human purulent sputum was used. Suc-Ala-Ala-Pro-Phe-pNA (manufactured by SIGMA) was used as the synthetic substrate. An inhibitory effect of a compound on each enzyme was determined by the following method.
(§3) Each test compound (5 μmol) was weighed in a test tube and dissolved into 2 mL of DMSO. […] Then, 200 μL of 1 mmol/L substrate solution was added to initiate en enzymatic reaction under a temperature of 37° C.
(§4) Based on each inhibitory ratio, IC50 value was calculated.

Cathepsin G = target: T4, Cathepsin G (Homo sapiens, UniProt P08311); experiment: Measurement of cathepsin G inhibitory activity (Suc-Ala-Ala-Pro-Phe-pNA); assay type: biochemical; details: cathepsin G from human purulent sputum; 60 minutes at 37° C.
T4 construct: the product of Elastin Products Company, Inc. derived from human purulent sputum was used; purchased Elastin Products Company, Inc; host or cells: human purulent sputum
T4 sequence (P08311 21-244): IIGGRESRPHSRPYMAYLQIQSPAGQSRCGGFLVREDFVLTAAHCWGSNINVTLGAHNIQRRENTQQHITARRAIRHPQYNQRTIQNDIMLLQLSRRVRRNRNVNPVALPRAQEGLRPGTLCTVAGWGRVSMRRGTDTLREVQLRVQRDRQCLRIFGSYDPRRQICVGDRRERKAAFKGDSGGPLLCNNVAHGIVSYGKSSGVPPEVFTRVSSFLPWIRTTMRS
Procedure: as §1, §2, §3, §4

[1] = read-out: Human cymase IC50 value, human chymase from silkworms infected with baculovirus, 120 minutes at 37° C.

Row | SMILES | IC50 (Simian chymase) [nM] | IC50 (Human chymase) [nM] | IC50 (Chymotrypsin) [nM] | IC50 (Cathepsin G) [nM] | other results
1 | CC(=O)c1ccc(NS(=O)(=O)c2sc3ccc(Cl)cc3c2C)c(S(C)(=O)=O)c1 [Compound 11, N-(4-acetyl-2-methanesulfonylphenyl)-5-chloro-3-methylbenzo[b]thiophene-2-sulfonamide] | 100 | 271 | – | – | –
2 | CC(=O)c1ccc(NS(=O)(=O)c2sc3ccc(F)cc3c2C)c(S(C)(=O)=O)c1 [Compound 19, N-(4-acetyl-2-methanesulfonylphenyl)-5-fluoro-3-methylbenzo[b]thiophene-2-sulfonamide] | 20 | – | – | – | Residual ratio in rat plasma (Stability in rat plasma): 96.2%; IC50 (Human chymase; [1]): 82 nM
3 | COC(=O)c1coc(-c2ccc(NS(=O)(=O)c3sc4ccc(Cl)cc4c3C)c(S(C)(=O)=O)c2)n1 [Compound 25, methyl 2-[4-(5-chloro-3-methylbenzo[b]thiophene-2-sulfonylamino)-3-methanesulfonylphenyl]oxazole-4-carboxylate] | 75 | – | – | – | melting point: 296 to 298 °C
4 | Cc1c(S(=O)(=O)Nc2ccc(CO)cc2S(C)(=O)=O)sc2ccc(Cl)cc12 [Compound 13, 5-chloro-N-(4-hydroxymethyl-2-methanesulfonylphenyl)-3-methylbenzo[b]thiophene-2-sulfonamide] | 271 | – | – | – | –
5 | Cc1c(S(=O)(=O)Nc2ccc(-c3cnco3)cc2S(C)(=O)=O)sc2ccc(F)cc12 [Compound 48] | 6 | 45 | > 10000 | > 10000 | melting point: 199 to 201 °C
6 | COC(=O)c1ccc(NS(=O)(=O)c2sc3ccccc3c2C)c(S(C)(=O)=O)c1 [Compound 20, methyl 4-(3-methylbenzo[b]thiophene-2-sulfonylamino)-3-methanesulfonylbenzoate] | 39 | – | – | – | IC50 (Human chymase; [1]): 305 nM
7 | Cc1c(S(=O)(=O)Nc2ccc(C(=O)OC(C)(C)C)cc2S(C)(=O)=O)sc2ccc(Cl)cc12 [Compound 3, tert-butyl 4-(5-chloro-3-methylbenzo[b]thiophene-2-sulfonylamino)-3-methanesulfonylbenzoate] | 178 | – | – | – | –
8 | COC(=O)c1cc(S(C)(=O)=O)c(NS(=O)(=O)c2sc3ccc(Cl)cc3c2C)cc1C [Compound 5, Methyl 4-(5-chloro-3-methylbenzo[b]thiophene-2-sulfonylamino)-5-methanesulfonyl-2-methylbenzoate] | 150 | – | > 1000 | > 1000 | Residual ratio in rat plasma (Stability in rat plasma): 85.2%
9 | CCOC(=O)c1ccc(NS(=O)(=O)c2sc3ccc(Cl)cc3c2C)c(S(C)(=O)=O)c1 [Compound 2, Ethyl 4-(5-chloro-3-methylbenzo[b]thiophene-2-sulfonylamino)-3-methanesulfonylbenzoate] | 42 | – | – | – | –
10 | Cc1c(S(=O)(=O)Nc2ccc(-c3nc(C(=O)O)co3)cc2S(C)(=O)=O)sc2ccc(Cl)cc12 [Compound 26, 2-[4-(5-chloro-3-methylbenzo[b]thiophene-2-sulfonylamino)-3-methanesulfonylphenyl]oxazole-4-carboxylic acid] | 10 | 150 | > 10000 | > 10000 | Residual ratio in rat plasma (Stability in rat plasma): 100%
11 | CC(C)C[C@H](NC(=O)[C@@H](NC(=O)N[C@@H](Cc1ccccc1)C(=O)O)[C@@H]1CCN=C(N)N1)C(=O)N[C@H](C=O)Cc1ccccc1 [Chymostatin, reference compound] | – | – | – | 5.99 | –
12 | Cc1c(S(=O)(=O)Nc2ccc(C(=O)NCC(=O)O)cc2S(C)(=O)=O)sc2ccc(Cl)cc12 (as salt: sodium) [Compound 52] | – | – | – | – | melting point: 290 to 292 °C
13 | COC(=O)c1ccc(NS(=O)(=O)c2sc3ccc(Cl)cc3c2C)c([N+](=O)[O-])c1 [Compound 8, Methyl 4-(5-chloro-3-methylbenzo[b]thiophene-2-sulfonylamino)-3-nitrobenzoate] | – | – | > 10000 | > 10000 | –
14 | CCOC(=O)c1ccc(NS(=O)(=O)c2sc3ccc(Cl)cc3c2C)cc1 [Compound 14, ethyl 4-(5-chloro-3-methylbenzo[b]thiophene-2-sulfonylamino)benzoate] | 278 | – | > 10000 | > 10000 | Residual ratio in rat plasma (Stability in rat plasma): 79.2%
15 | CCS(=O)(=O)c1cc(C(=O)OC)ccc1NS(=O)(=O)c1sc2ccc(Cl)cc2c1C [Compound 4, Methyl 4-(5-chloro-3-methylbenzo[b]thiophene-2-sulfonylamino)-3-ethanesulfonylbenzoate] | 111 | – | > 10000 | > 10000 | Residual ratio in rat plasma (Stability in rat plasma): 93.5%
16 | COC(=O)c1ccc(NS(=O)(=O)c2sc3ccc(Cl)cc3c2C)c(S(C)(=O)=O)c1 [Compound 1, Methyl 4-(5-chloro-3-methylbenzo[b]thiophene-2-sulfonylamino)-3-methanesulfonylbenzoate] | 50 | – | > 10000 | > 10000 | Residual ratio in rat plasma (Stability in rat plasma): 93.9%; IC50 (Human chymase; [1]): 203 nM

Now from value to compound, other results behind:

Row | IC50 (Simian chymase) [nM] | IC50 (Human chymase) [nM] | IC50 (Chymotrypsin) [nM] | IC50 (Cathepsin G) [nM] | SMILES | other results
17 | – | 55 | – | – | Cc1c(S(=O)(=O)Nc2ccc(-c3ncco3)cc2S(C)(=O)=O)sc2ccc(F)cc12 [Compound 73, 5-fluoro-N-[2-methanesulfonyl-4-(oxazol-2-yl)phenyl]-3-methylbenzo[b]thiophene-2-sulfonamide] | –
18 | – | 20 | – | – | CS/C(=C\c1ccc(NS(=O)(=O)c2sc3ccc(F)cc3c2C)c(S(C)(=O)=O)c1)[S+](C)[O-] (stereo not shown) [Compound 72, 5-fluoro-N-[2-methanesulfonyl-4-((E)-2-methanesulfinyl-2-methylsulfanylvinyl)phenyl]-3-methylbenzo[b]thiophene-2-sulfonamide] | –
19 | – | 102 | – | – | COc1oc(-c2ccc(NS(=O)(=O)c3sc4ccc(F)cc4c3C)c(S(C)(=O)=O)c2)nc1C [Compound 56, 5-fluoro-N-[2-methanesulfonyl-4-(5-methoxy-4-methyloxazol-2-yl)phenyl]-3-methylbenzo[b]thiophene-2-sulfonamide] | –
20 | – | 39 | – | – | Cc1c(S(=O)(=O)Nc2ccc(-c3nc(CO)co3)cc2S(C)(=O)=O)sc2ccc(F)cc12 [Compound 66] | melting point: 242 to 244 °C
21 | 157 | – | – | – | Cc1c(S(=O)(=O)Nc2ccc(C(=O)NCC(=O)O)cc2S(C)(=O)=O)sc2ccc(Cl)cc12 [Compound 52] | –
22 | – | 101 | – | – | Cc1coc(-c2ccc(NS(=O)(=O)c3sc4ccc(F)cc4c3C)c(S(C)(=O)=O)c2)n1 [Compound 68] | melting point: 206 to 208 °C
23 | – | 20 | – | – | Cc1c(S(=O)(=O)Nc2ccc(-c3nc(CO)cs3)cc2S(C)(=O)=O)sc2ccc(F)cc12 [Compound 63, 5-fluoro-N-[4-(4-hydroxymethylthiazol-2-yl)-2-methanesulfonylphenyl]-3-methylbenzo[b]thiophene-2-sulfonamide] | –

Reference: patent US7071220B2, “N-substituted benzothiophenesulfonamide derivatives” (Toa Eiyo Ltd., priority 2000, dated 2006)
